Experimental findings from US20120076846A1, “Pyrethroid Compound, Preparation Process and Use Thereof” (priority 2009, published 2012) are described below.

Test [1] has as its system female Culex pipiens pallens. The test is described as follows: Efficacy of pesticide incense coils on mosquito (GB13917.4-92, airtight cask). The format is in vivo. The following applies: for KT50: pesticide incense coil, 0.04 w/w % active ingredient, ignited and removed after 1 min, 20 female mosquitoes; for relative efficacy compared with dimefluthrin: incense coil 0.04 w/w %, from KT50 of table 1. How it is done: To a mixture of corn starch, carbon powder and wood flour (1:5:4, 99.96 parts by weight) was added water (120 parts by weight) and the resulting mixture was kneaded, and then dried to give a pesticide incense coil substrate (diameter: 12.0 cm; thickness: 4 mm; one pair of substrates' weight: 40 g).
On the other hand, a 0.4 w/v % solution of compound 1 in kerosene was prepared.
The above solution (4 ml) was uniformly sprayed on the incense coil substrate with a micro-syringe, and then kept for airing at room temperature for 3 hours to get of a pesticide incense coil I containing compound 1 according to the present invention (0.04 w/w %).
Similarly, a 0.4 w/v % solution of compound 2 in kerosene was prepared and a pesticide incense coil II containing compound 2 (0.04 w/w %) was be obtained.
A 0.4 w/v % solution of compound 3 in kerosene was prepared and a pesticide incense coil III containing compound 3 (0.04 w/w %) was obtained;
A 0.4 w/v % solution of compound 4 in kerosene was prepared and a pesticide incense coil IV containing compound 4 (0.04 w/w %) was obtained;
A 0.4 w/v % solution of compound 6 in kerosene was prepared and a pesticide incense coil V containing compound 6 (0.04 w/w %) was obtained;
A 0.4 w/v % solution of dimefluthrin in kerosene was prepared and a pesticide incense coil VI containing dimefluthrin (0.04 w/w %) was obtained.
The efficacy of pesticide coils I-Vi on mosquito were tested and compared according to GB13917.4-92). In particular, the test pests are female Culex pipiens pallens (2-3 days old, fasten). Firstly, 20 test mosquitoes were captured and put into airtight cask testing device with a mosquito-sucking tube, a section of pesticide incense coil to be tested was put on shelves, then ignited and removed after 1 min.

Test [2] deals with Mosquito. The test is described as follows: Efficacy of aerosol pesticide on mosquito (GB13917.2-92). The format is in vivo. The following applies: 1 g sprayed. The method, then:
(§1) Compound 1 (0.3 parts by weight) and kerosene (59.7 parts by weight) are mixed under heating to prepare a pesticide. The pesticide was placed in aerosol cans with a valve and then a mixture of propane and butane (40.0 parts by weight) was injected into tank through the valve at positive pressure to get an aerosol pesticide, which contains […] compound 1.
(§2) The efficacy of the aerosol pesticide on Mosquitoes, flies and blattella germanicas were tested according to GB13917.2-92. In particular, the test pests were placed into a tank. After all test pests restored normal activities, 1 g aerosol pesticide from aerosol cans was sprayed into the tank. Take the barrier plate away to make pests exposed to the aerosol pesticide and the number of killed pests was recorded at regular intervals, then all test pests were transferred to a clean cage after 20 mins, the number of dead pests was counted after 24 hours and the mortality of blattella germanicas at 72 h was determined.

A further test has as its system sanitary pests. The test is described as follows: Efficacy comparison of stereoisomers in controlling sanitary pests (experiments not detailed). The following applies: for efficacy of isomer relative to other isomers: qualitative statement from applicant's study.
For a further test, the system named is Blattella germanica. The test is described as follows: Efficacy of aerosol pesticide on blattella germanica (GB13917.2-92). It is filed as in vivo. Particulars: 1 g sprayed. How it is done: as §1, §2
Another test relates to Fly. The test is described as follows: Efficacy of aerosol pesticide on fly (GB13917.2-92). The format is in vivo. Particulars: 1 g sprayed. The method, then: as §1, §2
The test system of test [3] is Mosquito. The test is described as follows: Volatile agent on filter paper hung on the door of a room, mosquito invasion. The format is in vivo. The following applies: 1 mg on filter paper 20 cm×50 cm, volatilised at room temperature, hung on edge of door. How it is done:
Compound 6 (2,3,5,6-tetrafluoro-4-methoxymethylbenzyl-1R, trans-(Z)-3-(3,3,3-trifluoro-1-prop ylene)-2,2-dimethylcyclopropane carboxylate, 1 mg) was dissolved in acetone (20 ml) to obtain a solution. The resulting solution was distributed on a filter paper (20 cm×50 cm) and air-dried to remove the acetone to obtain a volatile agent.

[4] abbreviates: aerosol pesticide from compound 1 (0.3 parts by weight).
Where [5] appears, read: aerosol pesticide, 20 min exposure, 24 h.

The compound `COCc1c(F)c(F)c(COC(=O)[C@@H]2C(/C=C/C(F)(F)F)C2(C)C)c(F)c1F` (stereo partly drawn) [Compound 2, 2,3,5,6-tetrafluoro-4-methoxymethylbenzyl-1R-(E)-3-(3,3,3-trifluoro-1-propenyl)-2,2-dimethylcyclopropane carboxylate] yielded a KT50 in test [1] of 5.2 min.
Regarding `COCc1c(F)c(F)c(COC(=O)[C@@H]2C(/C=C\C(F)(F)F)C2(C)C)c(F)c1F` (stereo partly drawn) [Compound 1, 2,3,5,6-tetrafluoro-4-methoxymethylbenzyl-1R-(Z)-3-(3,3,3-trifluoro-1-propenyl)-2,2-dimethylcyclopropane carboxylate], the “KT50 (mosquito/fly/cockroach)” value with Mosquito [2] (setting [4]) was found to be 4.8 min; with Blattella germanica (setting [4]), 6.2 min; with Fly (setting [4]), 4.3 min. Further, the “Mortality during 24 h” value in the test with Mosquito [2] (setting [5]) and with Fly (setting [5]) was 100% throughout. The “cross resistance compared to traditional pyrethroid products such as allethrin” value in the test with sanitary pests (control of sanitary pests) was “doesn't have cross resistance”. Besides, the “efficacy of isomer relative to other isomers” value with sanitary pests is recorded as “highly active isomer”. Besides, the “Mortality (72 h)” value with Blattella germanica (aerosol pesticide, 20 min exposure, 72 h) amounted to 90%. The “relative efficacy compared with dimefluthrin” value in test [1] is “more than twice that of dimefluthrin”. In test [1], the KT50 is on record as 3.2 min.
With `COCc1c(F)c(F)c(COC(=O)C2C(C=C(C)C)C2(C)C)c(F)c1F` (stereo not drawn) [Dimefluthrin, dimefluthrin, reference compound], the KT50 in test [1] came to 7.6 min.
Compound `COCc1c(F)c(F)c(COC(=O)[C@H]2C(/C=C/C(F)(F)F)C2(C)C)c(F)c1F` (stereo partly drawn) [Compound 4, 2,3,5,6-tetrafluoro-4-methoxymethylbenzyl-1S-(E)-3-(3,3,3-trifluoro-1-propenyl)-2,2-dimethylcyclopropane carboxylate] displayed a KT50 in test [1] of 8.2 min.
On to `COCc1c(F)c(F)c(COC(=O)[C@@H]2[C@@H](/C=C\C(F)(F)F)C2(C)C)c(F)c1F` (relative stereo) [Compound 6, 2,3,5,6-tetrafluoro-4-methoxymethylbenzyl-1R, trans-(Z)-3-(3,3,3-trifluoro-1-propenyl)-2,2-dimethyl cyclopropane carboxylate], for which, in the test on Mosquito [3], the “mosquito invasion of a room” value is reported as “None mosquito invaded”. Moreover, the “efficacy of isomer relative to other isomers” value in the test on sanitary pests is on record as “slightly better than the cis isomer”. Besides, in test [1], the “relative efficacy compared with dimefluthrin” value is recorded as “more than twice that of dimefluthrin” and the KT50 worked out at 3.1 min.
`COCc1c(F)c(F)c(COC(=O)[C@H]2C(/C=C\C(F)(F)F)C2(C)C)c(F)c1F` (stereo partly drawn) [Compound 3, 2,3,5,6-tetrafluoro-4-methoxymethylbenzyl-1S-(Z)-3-(3,3,3-trifluoro-1-propenyl)-2,2-dimethyl cyclopropane carboxylate] showed a KT50 in test [1] of 5.1 min.
